# Measured values as given in patent publication US12134721B2, “Complexes and ligands” (The General Hospital Corporation, priority 2018, dated 2024).
# What was measured:
# Format in all cases: physicochemical
# [1] = Fluorescence lifetimes of selected lanthanide (Tb, Eu, Dy, Sm) complexes
# [2] = Photophysical measurements of terbium complexes in 1x PBS pH 7.4; conditions: for τPBS (fluorescence lifetime): 1x PBS pH 7.4; for Emission λmax: 1x PBS pH 7.4, 4 uM; for εmax / λmax, Abs: 1x PBS pH 7.4, 20 uM
# Procedure: (§1) Photophysical measurements: UV/visible and emission spectra were recorded on a Horiba Scientific Dual FL spectrophotometer. Ligands loaded with terbium were diluted into 1×PBS (pH 7.4) to a concentration of 20 uM (for absorbance) or 4 uM (for emission). For emission spectra, the data were normalized to the highest fluorescence signal. The fluorescence lifetime was determined by plotting the ln of the signal decay over time then solving for r in Equation 1:
# (§2) [formula] where It is the intensity at time t, α is a normalization term (the preexponential factor) and τ is the lifetime.
# [3] = Fluorescence lifetimes of selected lanthanide (Tb, Eu, Dy, Sm) complexes; conditions: Table 1
# Procedure: as §1, §2
# [4] = Stability of Tb complexes (10 nM) in various buffers over 7 days; conditions: buffers with 0.05% TWEEN-20
# Procedure: The stability of NCP190-Tb (10 nM) was measured over the course of 7 days in various different buffers. All buffers contained 0.05% TWEEN-20 detergent.
# The stability of NCP134-Tb (10 nM) was measured over the course of 7 days in various different buffers. All buffers contained 0.05% TWEEN-20 detergent.
# [5] = Dy and Sm complexes of NCP189, Table 3
compound,measurement,setting,value
O=C1NCCN2CCNC(=O)c3cccc(c3O)C(=O)NCCN(CCNC(=O)c3cccc1c3O)CC(=O)N1CCNC(=O)c3cccc(c3O)C(=O)NCCN(CCNC(=O)c3cccc(c3O)C(=O)NCC1)CC2 [NCP 272-Eu],Life Time,"[1]; Eu complexes, Table 2",609 µs
O=C(O)CN1CCN2CCNC(=O)c3cccc(c3O)C(=O)NCCN(CCNC(=O)c3cccc(c3O)C1=O)CCN1CCNC(=O)c3cccc(c3O)C(=O)NCCN(CCNC(=O)c3cccc(c3O)C(=O)NCC1)CC2 [NCP 144-Tb],τPBS (fluorescence lifetime),[2],2.06 ms
same,Emission λmax,[2],545 nm
same,εmax,[2],"19,230 M^−1cm^−1"
same,"λmax, Abs",[2],340 nm
same,Life Time,[3],2.06 ms
Nc1nc(CCc2ccc(CNC(=O)CCCCCN3CCN4CCNC(=O)c5cccc(c5O)C(=O)NCCN(CCNC(=O)c5cccc(c5O)C3=O)CCN3CCNC(=O)c5cccc(c5O)C(=O)NCCN(CCNC(=O)c5cccc(c5O)C(=O)NCC3)CC4)cc2)c2nc[nH]c2n1 [NCP 191-Tb],Life Time,[3],2.11 ms
O=C(CCCCCN1CCN2CCNC(=O)c3cccc(c3O)C(=O)NCCN(CCNC(=O)c3cccc(c3O)C1=O)CCN1CCNC(=O)c3cccc(c3O)C(=O)NCCN(CCNC(=O)c3cccc(c3O)C(=O)NCC1)CC2)NCCOCCOCCCCCCCl [NCP 190-Tb],Stability in various buffers,[4],only significantly destabilized by EDTA
same,Life Time,[3],2.46 ms
O=C(CN1CCN2CCNC(=O)c3cccc(c3O)C(=O)NCCN(CCNC(=O)c3cccc(c3O)C1=O)CCN1CCNC(=O)c3cccc(c3O)C(=O)NCCN(CCNC(=O)c3cccc(c3O)C(=O)NCC1)CC2)NCCOCCOCCCCCCCl [NCP 166-Tb],Life Time,[3],2.23 ms
O=C(O)CCCCCN1CCN2CCNC(=O)c3cccc(c3O)C(=O)NCCN(CCNC(=O)c3cccc(c3O)C1=O)CCN1CCNC(=O)c3cccc(c3O)C(=O)NCCN(CCNC(=O)c3cccc(c3O)C(=O)NCC1)CC2 [NCP 189-Eu],Life Time,"[1]; Eu complexes, Table 2",598 µs
O=C1NCCN2CCNC(=O)c3cc(Br)cc(c3O)C(=O)NCCN(CCNC(=O)c3cc(Br)cc1c3O)CCN1CCNC(=O)c3cc(Br)cc(c3O)C(=O)NCCN(CCNC(=O)c3cc(Br)cc(c3O)C(=O)NCC1)CC2 [NCP 158-Tb],τPBS (fluorescence lifetime),[2],0.97 ms
same,Emission λmax,[2],545 nm
same,εmax,[2],"13,750 M^−1cm^−1"
same,"λmax, Abs",[2],355 nm
same,Life Time,[3],0.97 ms
O=C(O)CCCCCN1CCN2CCNC(=O)c3cccc(c3O)C(=O)NCCN(CCNC(=O)c3cccc(c3O)C1=O)CCN1CCNC(=O)c3cccc(c3O)C(=O)NCCN(CCNC(=O)c3cccc(c3O)C(=O)NCC1)CC2 [NCP 189-Dy],Life Time,[1]; [5],22.7 ms
"BH(2,2)IAM-N-carboxymethyl-Halotag [NCP166]",τPBS (fluorescence lifetime),[2],2.23 ms
same,Emission λmax,[2],545 nm
same,εmax,[2],"10,800 M^−1cm^−1"
same,"λmax, Abs",[2],340 nm
O=C(O)CCCCCN1CCN2CCNC(=O)c3cccc(c3O)C(=O)NCCN(CCNC(=O)c3cccc(c3)C1=O)CCN1CCNC(=O)c3cccc(c3O)C(=O)NCCN(CCNC(=O)c3cccc(c3O)C(=O)NCC1)CC2 [NCP 259-Eu],Life Time,"[1]; Eu complexes, Table 2",657 µs
O=C1NCCN2CCNC(=O)c3cccc(c3O)C(=O)NCCN(CCNC(=O)c3cccc1c3O)C(=O)N1CCNC(=O)c3cccc(c3O)C(=O)NCCN(CCNC(=O)c3cccc(c3O)C(=O)NCC1)CC2 [NCP 275-Tb],Life Time,[3],1.39 ms
O=C(O)CCCCCN1CCN2CCNC(=O)c3cccc(c3O)C(=O)NCCN(CCNC(=O)c3cccc(c3)C1=O)CCN1CCNC(=O)c3cccc(c3O)C(=O)NCCN(CCNC(=O)c3cccc(c3O)C(=O)NCC1)CC2 [NCP 259-Tb],Life Time,[3],1.37 ms
O=C1NCCN2CCNC(=O)c3cccc(c3O)C(=O)NCCN(CCNC(=O)c3cccc1c3O)CCN1CCNC(=O)c3cccc(c3O)C(=O)NCCN(CCNC(=O)c3cccc(c3O)C(=O)NCC1)CC2 [NCP 134-Tb],τPBS (fluorescence lifetime),[2],2.10 ms
same,Emission λmax,[2],545 nm
same,εmax,[2],"11,600 M^−1cm^−1"
same,"λmax, Abs",[2],340 nm
same,Stability in various buffers,[4],"only significantly destabilized by EDTA, however to a greater extent relative to NCP190-Tb"
same,Life Time,[3],2.56 ms
O=C(O)CCCCCN1CCN2CCNC(=O)c3cccc(c3O)C(=O)NCCN(CCNC(=O)c3cccc(n3)C1=O)CCN1CCNC(=O)c3cccc(c3O)C(=O)NCCN(CCNC(=O)c3cccc(c3O)C(=O)NCC1)CC2 [NCP 227-Eu],Life Time,"[1]; Eu complexes, Table 2",651 µs
O=C1NCCN2CCNC(=O)c3cccc(c3O)C(=O)NCCN(CCNC(=O)c3cccc1c3O)CC(=O)N1CCNC(=O)c3cccc(c3O)C(=O)NCCN(CCNC(=O)c3cccc(c3O)C(=O)NCC1)CC2 [NCP 272-Tb],Life Time,[3],1.53 ms
Nc1nc(CCc2ccc(CNC(=O)CN3CCN4CCNC(=O)c5cccc(c5O)C(=O)NCCN(CCNC(=O)c5cccc(c5O)C3=O)CCN3CCNC(=O)c5cccc(c5O)C(=O)NCCN(CCNC(=O)c5cccc(c5O)C(=O)NCC3)CC4)cc2)c2[nH]cnc2n1 [NCP 169-Tb],Life Time,[3],1.99 ms
O=C(O)CCCCCN1CCN2CCNC(=O)c3cccc(c3O)C(=O)NCCN(CCNC(=O)c3cccc(c3O)C1=O)CCN1CCNC(=O)c3cccc(c3O)C(=O)NCCN(CCNC(=O)c3cccc(c3O)C(=O)NCC1)CC2 [NCP 189-Sm],Life Time,[1]; [5],28.1 ms
O=C(O)CCCCCN1CCN2CCNC(=O)c3cccc(c3O)C(=O)NCCN(CCNC(=O)c3cccc(n3)C1=O)CCN1CCNC(=O)c3cccc(c3O)C(=O)NCCN(CCNC(=O)c3cccc(c3O)C(=O)NCC1)CC2 [NCP 227-Tb],Life Time,[3],1.20 ms
O=C1NCCN2CCNC(=O)c3cccc(c3O)C(=O)NCCN(CCNC(=O)c3cccc1c3O)C(=O)N1CCNC(=O)c3cccc(c3O)C(=O)NCCN(CCNC(=O)c3cccc(c3O)C(=O)NCC1)CC2 [NCP 275-Eu],Life Time,"[1]; Eu complexes, Table 2",505 ms
O=C(O)CCCCCN1CCN2CCNC(=O)c3cccc(c3O)C(=O)NCCN(CCNC(=O)c3cccc(c3O)C1=O)CCN1CCNC(=O)c3cccc(c3O)C(=O)NCCN(CCNC(=O)c3cccc(c3O)C(=O)NCC1)CC2 [NCP 189-Tb],Life Time,[3],1.79 ms
